# Results published in patent US5977133A, “Pyridone antibiotic with improved safety profile” (priority 1998, dated 1999).
# Where a name gives a salt, the structure may show the parent alone. Read-outs that look alike come from different tables or passages of the source.
# Key:
# Type in all cases: cell-based
# S. aureus (CiproS) = experiment: In vitro MIC, agar dilution; details: Staphylococcus aureus
# S. aureus (CiproR) = experiment: In vitro MIC, agar dilution; details: Staphylococcus aureus
# S. epidermidis (CiproS) = experiment: In vitro MIC, agar dilution; details: Staphylococcus epidermidis
# S. epidermidis (CiproR) = experiment: In vitro MIC, agar dilution; details: Staphylococcus epidermidis
# S. pneumoniae (PenR) = experiment: In vitro MIC, agar dilution; details: Streptococcus pneumoniae
# S. pyogenes = experiment: In vitro MIC, agar dilution; details: Streptococcus pyogenes
# E. faecium (CiproS) = experiment: In vitro MIC, agar dilution; details: Enterococcus faecium
# E. faecium (CiproR) = experiment: In vitro MIC, agar dilution; details: Enterococcus faecium; E. faecium (CiproR), 2 isolates; read-out: MIC Range
# E. faecalis (VanS) = experiment: In vitro MIC, agar dilution; details: Enterococcus faecalis
# E. coli = experiment: In vitro MIC, agar dilution; details: Escherichia coli, 25 isolates
# Description: (§1) Each plate was inoculated with 1:100 (or 1:10 for slow-growing strains, primarily Micrococcus and Streptococcus) dilutions of up to 32 different microorganisms, using a Steers replicator block calibrated to deliver approximately 10^4 colony forming units (CFU's). The inoculated plates were incubated at from about 35° C. to about 37 ° C. for approximately 20-24 hours. In addition, a control plate using BHI agar containing no test compound was prepared and incubated at the beginning and at the end of each test. The quinolone antibacterial ciprofloxacin was used as a control ("Cntl").
# (§2) The numbers below the microorganism species indicate the nunbers of isolates tested. […] The MIC is defined as the lowest concentration of test compound yielding no growth (a slight haze or sparsely isolated colonies at the inoculum spot) as compared to the growth control containing no test compound.
# Salmonella spp. = experiment: In vitro MIC, agar dilution; details: 23 isolates
# Description: as §1, §2
# Shigella spp. = experiment: microbe, parasite or virus in culture; details: read-out: MIC Range
# Klebsiella spp. = experiment: In vitro MIC, agar dilution
# C. freundii = experiment: In vitro MIC, agar dilution; details: Citrobacter freundii
# P. mirabilis = experiment: In vitro MIC, agar dilution; details: Proteus mirabilis
# Providencia spp. = experiment: In vitro MIC, agar dilution
# Enterobacter spp. = experiment: In vitro MIC, agar dilution
# P. aeruginosa (CiproS) = experiment: In vitro MIC, agar dilution; details: Pseudomonas aeruginosa, P. aeruginosa (CiproS), 24 isolates
# P. aeruginosa (CiproR) = experiment: In vitro MIC, agar dilution
# B. fragilis = experiment: In vitro MIC, agar dilution
# C. difficile = experiment: In vitro MIC, agar dilution; details: C. difficile
# C. perfringens = experiment: microbe, parasite or virus in culture; details: Clostridium perfringens
# H. influenzae = experiment: In vitro MIC, agar dilution; details: Haemophilus influenzae, H. influenzae, 18 isolates
# M. catarrhalis = experiment: In vitro MIC, agar dilution; details: Moraxella catarrhalis
# Legionella spp. = experiment: microbe, parasite or virus in culture; details: Legionella
# M. pneumoniae = experiment: In vitro MIC, agar dilution; details: Mycoplasmoides pneumoniae; M. pneumoniae, 7 isolates; read-out: MIC Range
# N. gonorrhoeae = experiment: In vitro MIC, agar dilution; details: Neisseria gonorrhoeae
# H. pylori = experiment: In vitro MIC, agar dilution; details: Helicobacter pylori
# M. avium = experiment: In vitro MIC, agar dilution; details: Mycobacterium avium
compound,measurement,setting,value
"CN[C@@H]1CN(c2c(F)cn3c(=O)c(C(=O)O)cc(C4CC4)c3c2C)CC12CC2 [Example 1, 1-cyclopropyl-8-(7(S)-N-methylamino-5-azaspiro[2.4]heptyl)-7-fluoro-9-methyl-4-oxo-4H-guinolizine-3-carboxylic acid hydrochloride]",MIC90,S. aureus (CiproS),0.03 µg/mL
same,MIC50,"S. aureus (CiproS); S. aureus (CiproS), 21 isolates, read-out: MIC50",0.015 µg/mL
same,MIC,"S. aureus (CiproS); S. aureus (CiproS), 21 isolates, read-out: MIC Range",0.015 to 0.03 µg/mL
same,MIC90,S. aureus (CiproR),0.5 µg/mL
same,MIC50,"S. aureus (CiproR); S. aureus (CiproR), 25 isolates, read-out: MIC50",0.5 µg/mL
same,MIC,"S. aureus (CiproR); S. aureus (CiproR), 25 isolates, read-out: MIC Range",0.015 to 0.5 µg/mL
same,MIC90,S. epidermidis (CiproS),0.03 µg/mL
same,MIC50,"S. epidermidis (CiproS); S. epidermidis (CiproS), 23 isolates, read-out: MIC50",0.015 µg/mL
same,MIC,"S. epidermidis (CiproS); S. epidermidis (CiproS), 23 isolates, read-out: MIC Range",0.015 to 0.03 µg/mL
same,MIC90,S. epidermidis (CiproR),0.5 µg/mL
same,MIC,S. epidermidis (CiproR); read-out: MIC Range,0.12 to 2 µg/mL
same,MIC50,"S. epidermidis (CiproR); S. epidermidis (CiproR), 11 isolates, read-out: MIC50",0.25 µg/mL
same,MIC90,S. pneumoniae (PenR),0.06 µg/mL
same,MIC50,"S. pneumoniae (PenR); S. pneumoniae (PenR), 25 isolates, read-out: MIC50",0.06 µg/mL
same,MIC,"S. pneumoniae (PenR); S. pneumoniae (PenR), 25 isolates, read-out: MIC Range",0.03 to 0.06 µg/mL
same,MIC50,S. pyogenes,0.03 µg/mL
same,MIC90,S. pyogenes,0.06 µg/mL
same,MIC,"S. pyogenes; S. pyogenes, 21 isolates, read-out: MIC Range",0.03 to 0.06 µg/mL
same,MIC,E. faecium (CiproS); read-out: MIC Range,0.25 to 1 µg/mL
same,MIC50,"E. faecium (CiproS); E. faecium (CiproS), 16 isolates, read-out: MIC50",0.5 µg/mL
same,MIC90,"E. faecium (CiproS); E. faecium (CiproS), 16 isolates, read-out: MIC90",1 µg/mL
same,MIC,E. faecium (CiproR),0.5 to 4 µg/mL
same,MIC90,E. faecalis (VanS),0.25 µg/mL
same,MIC,E. faecalis (VanS); read-out: MIC Range,0.12 to 0.25 µg/mL
same,MIC50,"E. faecalis (VanS); E. faecalis (VanS), 17 isolates, read-out: MIC50",0.12 µg/mL
same,MIC,E. coli,4 to 15 ng/mL
same,MIC50,E. coli; read-out: MIC50,0.015 µg/mL
same,MIC90,E. coli; read-out: MIC90,0.015 µg/mL
same,MIC,Salmonella spp.,0.004 to 0.12 µg/mL
same,MIC50,Salmonella spp.; read-out: MIC50,0.03 µg/mL
same,MIC90,Salmonella spp.; read-out: MIC90,0.03 µg/mL
same,MIC,Shigella spp.,0.002 to 0.15 µg/mL
same,MIC90,Klebsiella spp.; Klebsiella,0.03 µg/mL
same,MIC50,"Klebsiella spp.; Klebsiella spp., 29 isolates, read-out: MIC50",0.015 µg/mL
same,MIC,"Klebsiella spp.; Klebsiella spp., 29 isolates, read-out: MIC Range",0.002 to 0.12 µg/mL
same,MIC50,C. freundii,0.03 µg/mL
same,MIC90,C. freundii,0.25 µg/mL
same,MIC,"C. freundii; C. freundii, 20 isolates, read-out: MIC Range",0.015 to 0.25 µg/mL
same,MIC90,P. mirabilis,0.12 µg/mL
same,MIC,P. mirabilis; read-out: MIC Range,0.03 to 0.25 µg/mL
same,MIC50,"P. mirabilis; P. mirabilis, 20 isolates, read-out: MIC50",0.12 µg/mL
same,MIC90,Providencia spp.; Providencia,0.25 µg/mL
same,MIC50,"Providencia spp.; Providencia spp., 28 isolates, read-out: MIC50",0.06 µg/mL
same,MIC,"Providencia spp.; Providencia spp., 28 isolates, read-out: MIC Range",0.015 to 1 µg/mL
same,MIC90,Enterobacter spp.; Enterobacter,0.03 µg/mL
same,MIC50,"Enterobacter spp.; Enterobacter spp., 35 isolates, read-out: MIC50",0.015 µg/mL
same,MIC,"Enterobacter spp.; Enterobacter spp., 35 isolates, read-out: MIC Range",0.008 to 0.12 µg/mL
same,MIC50,P. aeruginosa (CiproS); read-out: MIC50,0.5 µg/mL
same,MIC90,P. aeruginosa (CiproS); read-out: MIC90,2 µg/mL
same,MIC,P. aeruginosa (CiproS); read-out: MIC Range,0.12 to 4 µg/mL
same,MIC50,"P. aeruginosa (CiproR); Pseudomonas aeruginosa, P. aeruginosa (CiproR), 20 isolates, read-out: MIC50",8 µg/mL
same,MIC90,"P. aeruginosa (CiproR); Pseudomonas aeruginosa, P. aeruginosa (CiproR), 20 isolates, read-out: MIC90",16 µg/mL
same,MIC,"P. aeruginosa (CiproR); Pseudomonas aeruginosa, P. aeruginosa (CiproR), 20 isolates, read-out: MIC Range",4 to 32 µg/mL
same,MIC90,P. aeruginosa (CiproR); ciprofloxacin resistant P. aeruginosa strains,16 (g/mL
same,MIC90,"B. fragilis; B. fragilis, 18 isolates",0.12 µg/mL
same,MIC,"B. fragilis; Bacteroides fragilis, read-out: MIC Range",0.06 to 0.12 µg/mL
same,MIC50,"B. fragilis; Bacteroides fragilis, B. fragilis, 18 isolates, read-out: MIC50",0.06 µg/mL
same,MIC90,"B. fragilis; Bacteroides fragilis, B. fragilis, read-out: MIC90",0.12 µg/mL
same,MIC90,C. difficile; 10 isolates,0.5 µg/mL
same,MIC50,"C. difficile; Clostridioides difficile, 10 isolates, read-out: MIC50",0.5 µg/mL
same,MIC,"C. difficile; Clostridioides difficile, 10 isolates, read-out: MIC Range",0.5 µg/mL
same,MIC90,"C. difficile; Clostridioides difficile, read-out: MIC90",0.5 µg/mL
same,MIC50,C. perfringens,0.12 µg/mL
same,MIC90,C. perfringens,0.12 µg/mL
same,MIC90,"C. perfringens; C. perfringens, 13 isolates",0.25 µg/mL
same,MIC,C. perfringens; read-out: MIC Range,0.12 to 0.25 µg/mL
same,MIC50,H. influenzae; read-out: MIC50,4 ng/mL
same,MIC90,H. influenzae; read-out: MIC90,8 ng/mL
same,MIC,H. influenzae; read-out: MIC Range,2 to 15 ng/mL
same,MIC90,M. catarrhalis,0.03 µg/mL
same,MIC50,"M. catarrhalis; M. catarrhalis, 18 isolates, read-out: MIC50",0.015 µg/mL
same,MIC,"M. catarrhalis; M. catarrhalis, 18 isolates, read-out: MIC Range",0.008 to 0.03 µg/mL
same,MIC50,Legionella spp.,0.12 µg/mL
same,MIC90,Legionella spp.,0.25 µg/mL
same,MIC,Legionella spp.; read-out: MIC Range,0.12 to 0.25 µg/mL
same,MIC,M. pneumoniae,0.015 to 0.03 µg/mL
same,MIC90,N. gonorrhoeae,4 ng/mL
same,MIC50,"N. gonorrhoeae; N. gonorrhoeae, 12 isolates, read-out: MIC50",2 ng/mL
same,MIC,"N. gonorrhoeae; N. gonorrhoeae, 12 isolates, read-out: MIC Range",1 to 15 ng/mL
same,MIC50,H. pylori,0.03 µg/mL
same,MIC90,H. pylori,0.03 µg/mL
same,MIC,"H. pylori; H. pylori, 17 isolates, read-out: MIC Range",0.008 to 0.03 µg/mL
same,MIC,M. avium; read-out: MIC Range,0.25 to 8 µg/mL
same,MIC50,"M. avium; M. avium, 20 isolates, read-out: MIC50",1 µg/mL
same,MIC90,"M. avium; M. avium, 20 isolates, read-out: MIC90",4 µg/mL
